Experimental findings from PMC4394464, “Identification and Pharmacokinetics of Multiple Potential Bioactive Constituents after Oral Administration of Radix Astragali on Cyclophosphamide-Induced Immunosuppression in Balb/c Mice” (International Journal of Molecular Sciences, 2015) are described below.

Series [1] can be described thus: Pharmacokinetics of five main constituents in immunosuppressive mice plasma after oral administration of RA (HPLC-MS/MS). Format: in vivo, Balb/c mice. How it is done: The maximum plasma concentration (Cmax) and the time of maximum plasma concentration (tmax) were obtained from the observed data (Table 3). The plasma concentration-time profiles for calycosin-7-O-glucoside, ononin, calycosin, formononetin and astragaloside IV are shown in Figure 4.
To quantify calycosin-7-O-glucoside, ononin, calycosin, formononetin and astragaloside IV in mice, a 10-μL IS solution was added into 50 μL of plasma and mixed for 30 s. Then, 1 mL ethyl acetate was added to the tube and vortexed for 3 min. […] Ten microliters of the supernatant were injected into the HPLC-MS/MS system.
The quantification was performed by an LC-MS/MS system, which consisted of an Agilent 1200 HPLC series system and an Agilent 6410 triple quadrupole mass spectrometer (Agilent Technol., Santa Clara, CA, USA) equipped with an electrospray ionization source. Samples were separated by a rapid resolution HT C18 column (2.1 mm × 50 mm, 1.8 μm, Agilent Technol.) at 30 °C. The mobile phase consisted of 0.1 formic acid both in methanol (A) and water (B) using a gradient elution program of 25%–50% A (0–5 min) and 50%–90% (5–10 min). The flow rate was 0.2 mL/min, and the injection volume was 10 μL. Detection was performed in the positive ion mode using multiple reaction monitoring (MRM) of the m/z 447.1/285.0 for calycosin-7-O-glucoside, m/z 431.1/269.0 for ononin, m/z 285.0/137.0 for calycosin, m/z 269.0/213.0 for formononetin, m/z 807.4/627.3 for astragaloside IV and m/z 271.1/151.0 for naringenin.

A short description of series [2]: Profiling of absorbed constituents and metabolites in mice plasma after oral administration of RA (UFLC-DAD-Q-TOF-MS/MS). To be noted: oral RA extract 6 g/kg BW; cyclophosphamide-induced immunosuppressed Balb/c mice; plasma sampled 0.25-36 h; '-' = not detected.
Experimental: The peaks that appeared at the same position in the total ion chromatograms of both the dosed mice bio-samples and the RA extract, but not in the chromatograms of the controlled mice bio-samples, were regarded as absorbed constituents [22].
Following randomization into study groups, mice (6/group/male) received intraperitoneal injection once daily of cyclophosphamide (i.p. 80 mg/kg BW) for 6 days. Additionally, the control group was injected intraperitoneally with sterile physiological saline. […] Plasma was harvested by centrifugation at 3000× g for 10 min and then kept frozen at −70 °C until analysis.
After being vortexed for 1 min, the sample was centrifuged at 13,000× g at 4 °C for 30 min. The supernate was transferred into a fresh tube and evaporated with nitrogen. Then, the residue was dissolved in a 60-μL mobile phase with vortex mixing for 3 min and centrifuged at 13,000× g for 30 min. Finally, 10 μL of the supernatant were injected into the UFLC/DAD/Q-TOF-MS/MS system.
The multiple constituents in RA and the absorbed compounds in mice plasma were identified by the ultra-fast liquid chromatography/diode-array detector/quadrupole time-of-flight tandem mass spectrometry (UFLC/DAD/Q-TOF-MS/MS) method.
[3] abbreviates: male, Balb/c, mouse, in vivo, po, 6 g/kg.
Setting [4] is: after oral administration of RA, immunosuppressive Balb/c mice plasma.
[5] abbreviates: male, mouse, oral RA extract 6 g/kg BW, immunosuppressive Balb/c mice plasma, 0-36 h, read-out: AUC(0–t).
Setting [6] is: male, mouse, oral RA extract 6 g/kg BW, immunosuppressive Balb/c mice plasma, read-out: AUC(0–∞).
Setting [7] is: male, mouse, oral RA extract 6 g/kg BW, immunosuppressive Balb/c mice plasma, read-out: Cmax.
Where [8] appears, read: male, mouse, oral RA extract 6 g/kg BW, immunosuppressive Balb/c mice plasma, read-out: t1/2z (converted).
The mark [9] stands for this setting: male, mouse, oral RA extract 6 g/kg BW, immunosuppressive Balb/c mice plasma, read-out: tmax.

Where two headings read alike, the source gives them in different places.

In the case of `CC(C)(O)[C@@H]1CC[C@](C)(C2[C@@H](O)C[C@@]3(C)[C@@H]4C[C@H](O[C@@H]5O[C@H](CO)[C@@H](O)[C@H](O)[C@H]5O)C5C(C)(C)[C@@H](O[C@@H]6OC[C@@H](O)[C@H](O)[C@H]6O)CC[C@@]56C[C@@]46CC[C@]23C)O1` (single isomer, unassigned) [Peak 45, Astragaloside IV], the AUC(0-t) was 695 ± 179 ng·h/mL in series [1] (male, mouse, in vivo, 6 g/kg BW, oral RA, immunosuppressive Balb/c mice plasma, read-out: AUC0–t) and 695 ± 179 ng·h/mL in series [1] (male, mouse, in vivo, oral RA extract 6 g/kg BW, immunosuppressive Balb/c mice plasma, 0-36 h, read-out: AUC(0–t)). Moreover, the Cmax was found to be 129 ng/mL in series [1] (male, mouse, in vivo, 6 g/kg BW, oral RA, immunosuppressive Balb/c mice plasma, read-out: Cmax) and 129 ng/mL in series [1] (male, mouse, in vivo, oral RA extract 6 g/kg BW, immunosuppressive Balb/c mice plasma, read-out: Cmax). Besides, the AUC(0-inf) in series [1] (male, mouse, in vivo, oral RA extract 6 g/kg BW, immunosuppressive Balb/c mice plasma, read-out: AUC(0–∞)) was determined as 722 ± 197 ng·h/mL. For the same compound, the half-life in series [1] (male, mouse, in vivo, oral RA extract 6 g/kg BW, immunosuppressive Balb/c mice plasma, read-out: t1/2z (converted)) was 3.48 ± 1.15 h. For the same compound, the Tmax in series [1] (male, mouse, in vivo, oral RA extract 6 g/kg BW, immunosuppressive Balb/c mice plasma, read-out: tmax) is 1.5 h. In series [2], the “Source: Dosed Plasma (time points at which the compound was detected)” value (“Source: Dosed Plasma” below) is 0.25 to 24 h.

As to `COc1ccc(-c2coc3cc(O)ccc3c2=O)cc1` [Peak 39, Formononetin], in series [1] (male, Balb/c, mouse, in vivo, po), the “double-peak phenomenon, time of second peak” value (“double-peak phenomenon, time” below) is 6 h. In addition, in series [1] (setting [3]), the AUC(0-inf) came out at 256 ± 45.7 ng·h/mL, the AUC(0-t) amounted to 233 ± 47.8 ng·h/mL, the Cmax is 47.9 ng/mL and the Tmax was 2 h. Besides, in series [1] (setting [3]), the half-life is 3.99 ± 1.03 h. Moreover, the “Source: Dosed Plasma” value in series [2] lay in the range of 0.25 to 24 h.

As for `COc1ccc(-c2coc3cc(O)ccc3c2=O)cc1O` [Peak 37, Calycosin], in series [1] (setting [4]), the “double-peak phenomenon, time” value is listed as 6 h. Also, the AUC(0-t) in series [1] (setting [5]) is 136 ± 41.4 ng·h/mL. Moreover, the AUC(0-inf) in series [1] (setting [6]) was determined as 155 ± 37.7 ng·h/mL. Further, the Cmax in series [1] (setting [7]) was determined as 33 ng/mL. Also, the half-life in series [1] (setting [8]) was 2.21 ± 0.92 h. For the same compound, the Tmax in series [1] (setting [9]) came to 1.5 h. Moreover, the “Source: Dosed Plasma” value in series [2] was 0.25 to 24 h.

For `COc1ccc(-c2coc3cc(O[C@@H]4O[C@H](CO)[C@@H](O)[C@H](O)[C@H]4O)ccc3c2=O)cc1` (single isomer, unassigned) [Peak 33, Ononin], the “double-peak phenomenon, time” value in series [1] (setting [4]) was found to be 4 h. Besides, in series [1] (setting [5]), the AUC(0-t) came to 228 ± 59.7 ng·h/mL. The AUC(0-inf) in series [1] (setting [6]) worked out at 239 ± 47.4 ng·h/mL. Besides, in series [1] (setting [7]), the Cmax worked out at 51.4 ng/mL. In addition, the half-life in series [1] (setting [8]) is 1.96 ± 0.34 h. The Tmax in series [1] (setting [9]) amounted to 1.5 h. In series [2], the “Source: Dosed Plasma” value fell in the range of 0.25 to 24 h.

The Cmax is the highest concentration seen after dosing. One may read the Tmax as the time at which the peak concentration occurs.
